Reference: patent US6803186B2, “Compositions and methods for increasing amino acid absorption in mammals” (The IAMS Company, priority 2001, dated 2004)
Square brackets hold non-standard residues; d marks the D form. Peptide text beside a SMILES is read from it. Sar = CNCC(=O)O

Biological target: T1, canine PepT1 (cPepT1) (Canis lupus familiaris, UniProt Q8WMX5)
T1 construct: endogenous in cells; host or cells: MDCK (Madin-Darby Canine Kidney) cells, whole-cell [3H]-GlySar uptake
T1 sequence (Q8WMX5 1-708): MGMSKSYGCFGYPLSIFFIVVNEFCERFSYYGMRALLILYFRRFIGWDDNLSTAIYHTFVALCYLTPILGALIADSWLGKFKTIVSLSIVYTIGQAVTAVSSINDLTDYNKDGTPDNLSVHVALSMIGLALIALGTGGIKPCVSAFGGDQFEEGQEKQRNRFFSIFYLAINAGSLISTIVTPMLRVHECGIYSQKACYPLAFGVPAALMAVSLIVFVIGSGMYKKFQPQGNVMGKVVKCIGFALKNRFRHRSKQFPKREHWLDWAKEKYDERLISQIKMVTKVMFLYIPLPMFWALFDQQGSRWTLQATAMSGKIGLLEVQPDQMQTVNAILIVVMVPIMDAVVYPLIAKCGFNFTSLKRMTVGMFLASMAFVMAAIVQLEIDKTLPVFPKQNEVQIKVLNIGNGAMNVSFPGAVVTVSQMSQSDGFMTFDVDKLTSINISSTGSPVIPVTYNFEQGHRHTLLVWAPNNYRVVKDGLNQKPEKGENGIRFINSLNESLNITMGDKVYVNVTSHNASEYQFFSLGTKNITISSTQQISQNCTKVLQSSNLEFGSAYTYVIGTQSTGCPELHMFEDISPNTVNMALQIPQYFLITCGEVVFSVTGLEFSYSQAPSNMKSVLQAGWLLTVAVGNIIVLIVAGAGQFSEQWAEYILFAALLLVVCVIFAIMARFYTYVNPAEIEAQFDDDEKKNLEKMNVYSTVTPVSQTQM
Assay: Characterization of GlySar uptake by MDCK cells (Km, pH gradient, time course)
Format: cell-based
Conditions: for GlySar uptake in pH 6.0 buffer relative to pH 7.4 buffer: 100 μM GlySar
Protocol: Potential expression of PepT1 transport activity (H^+-dependent, dipeptide inhibitable, low-affinity dipeptide transport) by confluent MDCK cells was evaluated using whole-cell transport techniques and glycylsarcosine (GlySar) as a model dipeptide substrate. Cells were seeded at 60,000 cells/cm^2 into 24-well trays that had been coated with rat tail collagen or poly-L-lysine and cultured ([…]:5% CO2 at 37° C.) for 3 d in media consisting of Dulbecco's Modified Eagle Medium/10% fetal calf serum/1% antimicrobial antibacterial medium. Absorption (pmols/mg protein) of [^3H]-glycyl-L-sarcosine (GlySar, 6 mCi/mL, Moravek Biochemicals, Brea, Calif.) was determined using the 24-well cluster tray method and representative scintillation counting. Before transport, cells were incubated at 37° C. for 30 min in 25 mM Hepes/Tris (pH 7.5), 140 mM NaCl, 5.4 mM KCl, 1.8 mM CaCl2, 0.8 mM MgSO4, and 5 mM glucose (uptake buffer) to normalize intracellular amino acid and peptide pools. Transport was initiated by the addition of 0.25 mL of uptake buffer that contained 2.88 μm GlySar. After 30 min of uptake at 37° C., transport was terminated by rapid washing of cells with 4×2 mL 4° C. uptake buffer. Cellular protein was precipitated with 10% trichloroacetic acid and the supernatant recovered and counted to determine radioactivity (^3H) content. Cellular protein was then solubilized in 0.2 N NaOH and 0.2% SDS and quantified by the Lowry procedure, using bovine serum albumin as a standard. The amount of H^+-dependent GlySar absorbed was calculated as the difference between uptake in pH 6.0 and pH 7.5 uptake buffers. The amount of competitor substrate-inhibitable GlySar uptake was calculated as the quotient of GlySar uptake in the absence and presence of 10 mM competitor substrate (dipeptide or amino acid) multiplied by 100%.
To preliminarily characterize the kinetic parameters of peptide transport by MDCK cells, the uptake of GlySar in media that contained pH 6.0 and 0.00064, 0.0025, 0.010, 0.04, 0.160, 0.640, 2.56, or 10.2 mM of GlySar was measured (FIG. 6). […] Collectively, these characteristics of GlySar uptake are consistent with functional activity of PepT1 expressed by other species, as opposed to high-affinity, H^+-dependent uptake by PepT2 (μm Km).
Using the maximal uptake-stimulating culture parameters determined in Experiment 3, the effect of an extracellular-to-intracellular pH gradient on GlySar uptake was further evaluated to determine a pH level at which maximal GlySar uptake could be achieved, but which would replicate physiologic conditions (FIG. 10). As expected, the presence of a pH gradient stimulated (P<0.001) H^+-dependent GlySar uptake, in a quadratic (P<0.01) fashion. Uptake at pH 5.5 or 6.0 was about 2.7 times greater than that achieved at pH 7.5. […] Accordingly, the use pH 6.0 buffers for the characterization of H^+-dependent GlySar uptake was incorporated into the standard experimental conditions.
To determine the appropriate time period to measure initial (linear) rates of GlySar uptake, a by-minute time-course experiment was performed. […] GlySar uptake in pH 6.0 buffer at 3.75, 7.5, 15, 30, 60 and 120 min was about 2, 2.1, 2.25, 2.65, 2.79, and 2.62 times more (P<0.001), respectively, than uptake from pH 7.4 buffer. Because uptake was proportional to time of uptake through 1 h, future experiments were conducted using a 30-min time period.
To confirm that H^+-dependent GlySar uptake was saturable, and therefore mediated, the uptake of GlySar from pH 6.0 and 7.4 uptake buffers containing 0.025, 0.1, 0.4, 1.6, 6.4, or 25.6 mM GlySar was evaluated (FIG. 12). Uptake of GlySar was greatest (P<0.001) from the pH 6.0 buffers, at all concentrations.

`CN(CC(=O)O)C(=O)CN` [GlySar, glycylsarcosine] (H-Gly-[Sar]-OH) was tested, and the “H+-dependent GlySar uptake at pH 5.5 or 6.0 relative to pH 7.5” value (2.88 μM GlySar, LHM 2 days (FIG. 10)) was “about 2.7 times”, the “GlySar uptake in pH 6.0 buffer relative to pH 7.4 buffer” value (3.75 min) was “about 2 times” and the “GlySar uptake in pH 6.0 buffer relative to pH 7.4 buffer” value (7.5 min) was ~2.1 times. The “GlySar uptake in pH 6.0 buffer relative to pH 7.4 buffer” value (15 min) was ~2.25 times, the “GlySar uptake in pH 6.0 buffer relative to pH 7.4 buffer” value (30 min) was ~2.65 times and the “GlySar uptake in pH 6.0 buffer relative to pH 7.4 buffer” value (60 min) was ~2.79 times. For the same compound, the “GlySar uptake in pH 6.0 buffer relative to pH 7.4 buffer” value (120 min) was ~2.62 times, the “GlySar uptake at extracellular pH 6.0 relative to pH 7.5 medium” value (cells grown on poly-L-lysine) was 1.7 fold and the “GlySar uptake at extracellular pH 6.0 relative to pH 7.5 medium” value (cells plated on collagen) was 2.3 fold.
